Laboratory results from paper PMC10815964, “Cyclobutanone Inhibitors of Diaminopimelate Desuccinylase (DapE) as Potential New Antibiotics” (International Journal of Molecular Sciences, 2024).
Where “and” joins values, the source holds several entries; their conditions need not be identical. Equal entries are not always repeated. Where two headings read alike, the source gives them in different places. Values belong to the compound of their own block, whether it stands above or below them.

Key:
[1] = Cyclobutanone/hydrate equilibrium by NMR; type: physicochemical
Source text: Cyclobutanone 3y is soluble in CDCl3, but we wanted to vary the amount of D2O, and water has a solubility of only 0.815% in chloroform, so varying the quantity of D2O would not alter the concentration of D2O in CDCl3 solution once saturation is reached. We therefore selected DMSO-d6 as the solvent to enable the varying of the D2O concentration, which also provides a more polar environment that is more conducive to hydrate formation and is a better mimic of the environment of the enzyme in aqueous media. The ratio of hydrate to ketone was determined by the ratio of the integrals of the proton alpha to the hydrate/carbonyl and the α-amino group, which was 4.67 ppm for the hydrate in DMSO-d6 + 20% D2O and 4.40 ppm for the cyclobutanone ketone in DMSO-d6 + 20% D2O.
Cyclobutanone 3y was massed to 2–3 mg and the exact mass was recorded. Compound 3y was then dissolved in the appropriate amount of deuterated solvent (DMSO-d6 or CDCl3) and vortexed. The appropriate amount of deuterium oxide (0%, 2%, 10%, 20%, or 30%) was added to the sample and the sample was vortexed. The sample was inserted into the Bruker 500 MHz NMR and data were collected for 64 scans. The raw data were analyzed with the Mnova NMR program, and the Keq was calculated via the method described by the Wiberg group.

[2] = molecular target: H. influenzae DapE (HiDapE) (Haemophilus influenzae, UniProt P44514); experiment: Thermal shift assay (SYPRO Orange); type: binding
Description: A thermal shift assay was conducted to observe changes in the thermal stability of DapE under various concentrations of the inhibitor 3y, as summarized in Table 2. These studies were conducted on a Step One Real-Time PCR System and associated QuantStudio software (QuantStudio 5, Design and Analysis 2) through the fluorescence of the SYPRO Orange dye during protein denaturation. […] Upon addition of the inhibitor 3y, we observed a stabilization of the tertiary structure of the enzyme binding to the inhibitor, as indicated by a positive shift in the first melt temperature (Tm1). […] The thermal shift assay plot of Tm vs. log [3y (µM)] to determine the Ki of compound 3y is in the Supplementary Materials as Figure S82. […] Binding of a ligand most commonly leads to further stabilization of a protein, but destabilization as indicated by a lower Tm has been observed by others. Based on our previous work, [27] we observed sequential temperatures at which HiDapE was dissociating via circular dichroism: first at about 60 °C, which we hypothesize is the dimer dissociating, and a second at about 80 °C, which may represent denaturation of the monomer.
H. influenzae DapE was used at a final concentration of 200 nM and SYPRO Orange was used at a final concentration of 10×. It was performed in a Step One Real-Time PCR System (Applied Biosystems, Waltham, MA, USA). The experiment was carried out in 10 µL triplicates in 50 mM HEPES buffer at pH 7.5, nanopure water, and the inhibitor concentrations were based on the IC50 values of the inhibitor, 3y. Sample solutions were dispensed into a 96-well optical reaction plate (Thermo Fisher Scientific, Waltham, […], USA) and the plate was sealed with an optical PCR plate sheet (Thermo Fisher Scientific). […] Melting curves were obtained from the negative derivative and exported from the instrument into Excel. The negative melting temperatures were smoothed and differentiated to the negative third derivative. The Tm data were plotted against the log(concentration of 3y) with GraphPad Prism using a derived Van’t Hoff equation [39] to find the Ki value.

HiDapE = HiDapE (Haemophilus influenzae, UniProt P44514); experiment: DapE inhibition, ninhydrin-based assay; type: biochemical
Description: All compounds were screened for DapE inhibitory potency using a ninhydrin-based assay at 100 μM, and IC50 values were determined for molecules that inhibited DapE > 70% at 100 μM (Table 1). Some SAR trends emerge from the data.
Experimental IC50 curves for cyclobutanone inhibitors against DapE were identified as sigmoidal shaped response curves, as opposed to simple hyperbolic plots. […] IC50 curves with the corresponding Hill coefficients are reported in the Supplementary Materials as Figures S74−S81. Experimental Hill coefficients may provide information on the number of binding sites of a biological target (receptors and enzymes) interacting with ligands.
The inhibition of HiDapE by potential inhibitors was assessed using the previously developed ninhydrin assay with slight modifications. It was performed in a PCR Thermal Cycler System. All experiments were performed in triplicate in 50 mM HEPES buffer at pH 7.5. Reaction volumes were 100 µL of 2 mM N^6-Methyl-L,L-SDAP and 8 nM HiDapE. Ninhydrin was purchased as a 2% solution in 100% DMSO/lithium acetate buffer at pH 5.2. The inhibitor, followed by HiDapE, was added to a 50 mM HEPES (pH 7.5) buffered solution at 30 °C, and the mixture was incubated at 30 °C for 10 min. N^6-Methyl-L,L-SDAP was added, and the reaction mixture was incubated at 30 °C for 10 min, then heated to 99 °C for 1 min, and further cooled to 0 °C for 1 min. The 2% ninhydrin solution (50 µL) was added, and the mixture was thoroughly mixed. The reaction mixture was heated to 80 °C for 15 min, then cooled to 0 °C for 1 min. The absorbance of an 80 μL aliquot was recorded at 570 nm on a BioTek Synergy 2 microplate reader. All the inhibition assays of HiDapE were performed in triplicate and the IC50 values were obtained by fitting the data following the modified Hill equation: V = V0 + (Vmax − V0) XnH/(XnH0.5 + XnH) using the graphing suite Origin 9.1 with the Levenberg–Marquardt non-linear least-squares algorithm. The velocity in the absence of the substrate is […]; the velocity at saturating concentrations of the substrate or with no inhibitor for the inhibition assay is Vmax; X is the concentration of the substrate or inhibitor; and X0.5 is the substrate (S0.5) and inhibitor (I0.5) concentration at 50% maximum velocity and at 50% inhibition, respectively. The Hill coefficient is represented as nH.

[3] = design: method as in doi:10.1021/ja00103a024; settings: in D2O, cited from earlier work
DapE = settings: cited from earlier work

Sequence of H. influenzae DapE (HiDapE) (P44514 whole entry): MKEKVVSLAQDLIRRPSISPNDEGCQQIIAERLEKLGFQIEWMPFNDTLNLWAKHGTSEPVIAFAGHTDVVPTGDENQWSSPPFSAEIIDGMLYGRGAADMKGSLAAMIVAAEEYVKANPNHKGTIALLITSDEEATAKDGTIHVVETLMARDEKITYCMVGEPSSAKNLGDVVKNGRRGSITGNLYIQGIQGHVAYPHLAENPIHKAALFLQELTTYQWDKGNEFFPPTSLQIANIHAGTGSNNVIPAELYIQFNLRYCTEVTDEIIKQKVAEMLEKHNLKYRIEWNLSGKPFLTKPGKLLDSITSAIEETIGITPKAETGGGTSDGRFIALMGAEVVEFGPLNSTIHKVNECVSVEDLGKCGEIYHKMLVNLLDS
Sequence of HiDapE (P44514 whole entry): as above

- % Hydrate ([1]; CDCl3 + 30% D2O): 7.33%
- Keq = [hydrate]/[ketone] ([1]; CDCl3 + 30% D2O (saturated with D2O)): 0.082
- % Hydrate ([1]; DMSO-d6 + 2% D2O): 35.4%
- Keq = [hydrate]/[ketone] ([1]; DMSO-d6 + 2% D2O): 0.58
- % Hydrate ([1]; DMSO-d6 + 10% D2O): 38.8%
- Keq = [hydrate]/[ketone] ([1]; DMSO-d6 + 10% D2O): 0.61
- % Hydrate ([1]; DMSO-d6 + 20% D2O): 40%
- melting point: 179 to 181 °C
- Tm1 ([2]; 200 nM HiDapE + 1 μM 3y): 49.6 +/− 0.18 °C
- Tm2 ([2]; 200 nM HiDapE + 1 μM 3y): 76.5 +/− 0.54 °C
- Tm1 ([2]; 200 nM HiDapE + 5 μM 3y): 49.0 +/− 0.30 °C
- Tm2 ([2]; 200 nM HiDapE + 5 μM 3y): 77.3 +/− 0.20 °C
- Tm1 ([2]; 200 nM HiDapE + 10 μM 3y): 50.0 +/− 0.34 °C
- Tm2 ([2]; 200 nM HiDapE + 10 μM 3y): 77.3 +/− 0.23 °C
- Tm1 ([2]; 200 nM HiDapE + 20 μM 3y): 51.2 +/− 0.13 °C
- Tm2 ([2]; 200 nM HiDapE + 20 μM 3y): 77.3 +/− 0.51 °C
- Tm1 ([2]; 200 nM HiDapE + 30 μM 3y): 52.1 +/− 0.5 °C
- Tm2 ([2]; 200 nM HiDapE + 30 μM 3y): 75.1 +/− 0.17 °C
- Tm1 ([2]; 200 nM HiDapE + 40 μM 3y): 52.7 +/− 0.37 °C
- Tm2 ([2]; 200 nM HiDapE + 40 μM 3y): 75.2 +/− 0.11 °C
- Tm1 ([2]; 200 nM HiDapE + 50 μM 3y): 53.4 +/− 0.23 °C
- Tm2 ([2]; 200 nM HiDapE + 50 μM 3y): 74.7 +/− 0.40 °C
- Tm1 ([2]; 200 nM HiDapE + 60 μM 3y): 54.1 +/− 0.35 °C
- Tm2 ([2]; 200 nM HiDapE + 60 μM 3y): 75.1 +/− 0.23 °C
- Tm1 ([2]; 200 nM HiDapE + 75 μM 3y): 54.6 +/− 0.42 °C
- Tm2 ([2]; 200 nM HiDapE + 75 μM 3y): 75.7 °C and 75.7 +/− 0.29 °C
- Ki ([2]; from Tm1 vs log[3y], 200 nM HiDapE): 10.2 µM
- inhibition at 100 µM (HiDapE; 100 µM inhibitor, read-out: DapE % Inhib at 100 µM): 99.7%
- IC50 (HiDapE; ninhydrin assay): 23.1 ± 0.9 µM
Compound: COc1ccc(S(=O)(=O)N[C@@H](C(=O)NC2CCC2=O)C(C)C)cc1 (mixture of isomers) [3y, (2R)-2-((4-Methoxyphenyl)sulfonamido)-3-methyl-N-(2-oxocyclobutyl)butanamide]

Compound: O=C1CCC1 [Cyclobutanone, cyclobutanone]
- % Hydrate [3]: 2.0%
- Keq = [hydrate]/[ketone] [3]: 2.8 × 10^−3
- % Hydrate ([3]; listed as cyclobutanone): about 2%

Compound: C[C@H](CS)C(=O)N1CCC[C@H]1C(=O)O [captopril]
- DapE inhibition (DapE): low micromolar inhibitor
